Measured values reported in patent publication US7544814B2, “[3.2.0] Heterocyclic compounds and methods of using the same” (Nereus Pharmaceuticals, Inc., priority 2004, dated 2009).
Several values for one entry are separate records, joined by “and”; a condition that tells them apart may be missing. Equal entries are not always repeated. Where two headings read alike, the source gives them in different places.

Legend:
HL-60 = test: Cell growth inhibition (resazurin), HL-60; type: cell-based, human; conditions: for EC50: Table 4, 48 hours drug exposure; for cytotoxic activity against HL-60, in words: from EC50 values
U266 [1] = system: U266
NF-κB = test: NF-κB-mediated luciferase reporter gene assay, HEK293 NF-κB/Luc cells, TNF-α stimulation; type: cell-based, human; conditions: for EC50: 1 hr pretreatment, TNF-α 6 hr; for effect on luciferase activity upon TNF-α stimulation, in words: pretreatment of NF-κB/Luc 293 cells
Experimental: The HEK293 NF-κB/luciferase reporter cell line is a derivative of the human embryonic kidney cell line (ATCC; CRL-1573) and carries a luciferase reporter gene under the regulation of 5× NF-κB binding sites. […] When performing the luciferase assay, the DMEM basal medium was replaced with phenol-red free DMEM basal medium and the G418 was omitted.
For NF-κB-mediated luciferase assays, HEK293 NF-κB/luciferase cells were seeded at 1.5×10^4 cells/well in 90 μl phenol-red free DMEM complete medium into Corning 3917 white opaque-bottom tissue culture plates. For Formula II-2, Formula II-4, Formula II-5A, and Formula II-18, a 400 μM starting dilution was made in 100% DMSO and this dilution was used to generate a 8-point half log dilution series. […] For Formula II-20, a 2.5 mM or 8 mM starting solution was made in 100% DMSO and the final test concentrations ranged from 6.3 μM to 2.0 nM or 20 μM to 6.3 nM, respectively. The plates were returned to the incubator for 1 hour. After 1 hr pretreatment, 10 μl of a 50 ng/ml TNF-α solution, prepared in the phenol-red free DMEM medium was added, and the plates were incubated for an additional 6 hr.
At the end of the TNF-α stimulation, 100 μl of Steady Lite HTS luciferase reagent (Packard Bioscience) was added to each well and the plates were left undisturbed for 10 min at room temperature before measuring the luciferase activity. The relative luciferase units (RLU) were measured by using a Fusion microplate fluorometer (Packard Bioscience).

B16-F10 [2] = system: B16-F10
[3] = target: T1, trypsin-like activity of purified rabbit muscle 20S proteasome (Oryctolagus cuniculus, UniProt G1SWK8); test: In vitro inhibition of 20S proteasome trypsin-like activity (Boc-LRR-AMC)
T1 sequence (G1SWK8 1-271): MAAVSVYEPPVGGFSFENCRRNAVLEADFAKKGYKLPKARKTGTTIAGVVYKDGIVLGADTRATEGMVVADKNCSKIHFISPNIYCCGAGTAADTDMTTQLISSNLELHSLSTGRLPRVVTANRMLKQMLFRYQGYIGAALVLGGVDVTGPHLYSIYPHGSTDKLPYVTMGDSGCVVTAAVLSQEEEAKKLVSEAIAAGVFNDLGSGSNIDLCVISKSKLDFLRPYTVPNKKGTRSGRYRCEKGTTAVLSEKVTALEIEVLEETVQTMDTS

OVCAR-3 = test: Cell growth inhibition (resazurin), OVCAR-3
MES-SA = test: Cell growth inhibition (resazurin), MES-SA; type: cell-based, human; conditions: for cytotoxic activity against MES-SA, in words: from EC50 values
RPMI 8226 = test: Cell growth inhibition (resazurin), RPMI 8226; conditions: for EC50: 48 hours drug exposure; for cytotoxicity against RPMI 8226, in words: from EC50 values
[4] = target: T2, caspase-like activity of purified rabbit muscle 20S proteasome (Oryctolagus cuniculus, UniProt A0A5F9DQW2); test: In vitro inhibition of 20S proteasome caspase-like activity (Z-LLE-AMC)
T2 sequence (A0A5F9DQW2 1-212): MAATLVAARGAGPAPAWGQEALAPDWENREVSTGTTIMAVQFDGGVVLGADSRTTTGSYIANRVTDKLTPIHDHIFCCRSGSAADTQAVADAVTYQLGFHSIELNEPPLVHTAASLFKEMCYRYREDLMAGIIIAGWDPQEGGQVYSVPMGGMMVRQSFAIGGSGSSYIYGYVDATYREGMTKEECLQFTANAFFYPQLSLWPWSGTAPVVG

[5] = target: T3, chymotrypsin-like activity of purified rabbit muscle 20S proteasome (Oryctolagus cuniculus, UniProt G1T4Q9); test: In vitro inhibition of 20S proteasome chymotrypsin-like activity (suc-LLVY-AMC)
T3 sequence (G1T4Q9 1-263): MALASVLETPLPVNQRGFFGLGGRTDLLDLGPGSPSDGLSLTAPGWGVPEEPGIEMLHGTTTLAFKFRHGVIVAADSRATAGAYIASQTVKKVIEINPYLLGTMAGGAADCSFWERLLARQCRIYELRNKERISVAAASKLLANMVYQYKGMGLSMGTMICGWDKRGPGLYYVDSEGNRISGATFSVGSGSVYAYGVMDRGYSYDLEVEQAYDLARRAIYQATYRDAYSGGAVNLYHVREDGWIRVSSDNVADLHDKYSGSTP

U266 [6] = test: Cell growth inhibition (resazurin), U266; conditions: for EC50: 48 hours drug exposure
HT-29 = test: Cell growth inhibition (resazurin), HT-29; conditions: for cytotoxicity against HT-29, in words: from EC50 values
B16-F10 [7] = test: Cell growth inhibition (resazurin), B16-F10; conditions: 48 hours drug exposure, mean ± SD where n≥3
PC-3 = test: Cell growth inhibition (resazurin), PC-3; type: cell-based, human; conditions: from EC50 values
NCI-H292 = test: Cell growth inhibition (resazurin), NCI-H292; conditions: from EC50 values
MES-SA/Dx5 = test: Cell growth inhibition (resazurin), multidrug resistant MES-SA/Dx5; type: cell-based, human; conditions: from EC50 values
HL-60/MX2 = test: Cell growth inhibition (resazurin), multidrug resistant HL-60/MX2; conditions: from EC50 values
Experimental: Concentrations ranging from 6.32 μM to 2 nM were tested for II-2 and II-4.
HL-60/MX2 is a multidrug resistant tumor cell line derived from the human promyelocytic leukemia cell line, HL-60 and expresses reduced topoisomerase II activity. […] Mitoxantrone, the topoisomerase II targeting agent was included as a control.

MDA-MB-231 = test: Cell growth inhibition (resazurin), MDA-MB-231; conditions: for EC50: Homo sapiens, MDA-MB-231, 48 h, read-out: EC50 against MDA-MB-231; for cytotoxicity against MDA-MB-231, in words: from EC50 values
[8] = target: T1, trypsin-like activity of purified rabbit muscle 20S proteasome; test: biochemical
[9] = Homo sapiens, RPMI-8226, 48 h, read-out: RPMI 8226 EC50, Table 2, mean ± SD where n≥3
[10] = read-out: RPMI 8226 EC50, Table 2, mean ± SD where n≥3
[11] = EC50 values, chymotrypsin-like activity

Row | SMILES | EC50 (HL-60; Homo sapiens, HL-60, 48 h) | cytotoxic activity against HL-60, in words (HL-60) | effect on luciferase activity upon TNF-α stimulation, in words (NF-κB) | cytotoxicity against B16-F10, in words (B16-F10 [2]) | cytotoxic activity against MES-SA, in words (MES-SA) | EC50 (RPMI 8226; [9]) | cytotoxicity against RPMI 8226, in words (RPMI 8226) | EC50 (RPMI 8226; [10]) | EC50 [5, 11] | EC50 (U266 [6]; read-out: U266 EC50, Table 2) | cytotoxicity against HT-29, in words (HT-29) | cytotoxicity against PC-3, in words (PC-3) | cytotoxicity against NCI-H292, in words (NCI-H292) | cytotoxic activity against HL-60/MX2, in words (HL-60/MX2) | EC50 (MDA-MB-231) | cytotoxicity against MDA-MB-231, in words (MDA-MB-231) | also measured
1 | C[C@@]12OC(=O)[C@]1([C@@H](O)C1CCCCC1)NC(=O)[C@@H]2CCCl [Formula II-2] | 237 nM | retained cytotoxic activity | dose-dependent decrease | cytotoxic | cytotoxic activity | 49 nM | cytotoxic | 45 nM | 13 to 88 nM | 32 nM | cytotoxic | cytotoxic | cytotoxic | retained cytotoxic activity | 121 ± 23 nM | cytotoxic | EC50 (HL-60): 176 nM; cytotoxicity against U266, in words (U266 [1]): cytotoxic; EC50 (NF-κB; Homo sapiens, HEK293, read-out: EC50, NF-κB-mediated luciferase reporter gene assay, Table 5, values in nM): 71 ± 20 nM; inhibition of the trypsin-like activity of the 20S proteasome, in words ([3]; under the conditions tested): able to inhibit; cytotoxicity against OVCAR-3, in words (OVCAR-3; from EC50 values): cytotoxic; EC50 (RPMI 8226; Homo sapiens, RPMI-8226, 48 h, read-out: EC50 against RPMI 8226, Table 1): 49 nM; EC50 ([4]; EC50 Caspase-like, Table 6, values in μM): 1.3 µM and 1.7 µM; EC50 ([4]; EC50 values, caspase-like activity, range in mixed units, summary of Table 6, range from nM to μM): 0.956 to 8.7 µM; EC50 ([5]; read-out: EC50 Chymotrypsin-like): 19 nM; EC50 (U266 [6]; Homo sapiens, U-266, 48 h, read-out: U266 EC50, Table 2): 39 nM; EC50 (HT-29; Homo sapiens, HT-29, 48 h, read-out: EC50 against HT-29): 129 ± 21 nM; EC50 (B16-F10 [7]; Mus musculus, B16-F10, 48 h, read-out: EC50 against B16-F10, Table 1): 194 nM; EC50 (B16-F10 [7]; read-out: EC50 against B16-F10, Table 1): 180 nM; cytotoxic activity against MES-SA/Dx5, in words (MES-SA/Dx5): cytotoxic activity
2 | C[C@@]12OC(=O)[C@]1([C@@H](O)C1CCCCC1)NC(=O)[C@@H]2CCBr [Formula II-4] | 143 nM | retained cytotoxic activity | dose-dependent decrease | cytotoxic | cytotoxic activity | 57 nM | cytotoxic | 51 nM | 13 to 88 nM | 34 nM | cytotoxic | cytotoxic | cytotoxic | retained cytotoxic activity | 114 ± 4 nM | cytotoxic | EC50 (NF-κB; Homo sapiens, HEK293, Table 5, values printed in nM, read-out: EC50, NF-κB-mediated luciferase reporter gene assay): 67 nM; EC50 (NF-κB; read-out: EC50, NF-κB-mediated luciferase reporter gene assay, Table 5, values in nM): 88 nM; inhibition of the trypsin-like activity of the 20S proteasome, in words [3]: able to inhibit; EC50 ([3]; read-out: EC50 Trypsin-like): 110 nM; EC50 (OVCAR-3; Homo sapiens, OVCAR-3, 48 h, read-out: EC50 against OVCAR-3): > 6320 nM; EC50 (MES-SA; Homo sapiens, MES-SA, 48 h, Table 3, 48 hours drug exposure): 140 nM; EC50 ([4]; EC50 Caspase-like, Table 6, values in nM): 0.85 µM and 0.637 µM; EC50 ([4]; EC50 values, caspase-like activity, summary of Table 6): 0.213 to 0.85 µM; EC50 [8]: 107 nM; EC50 ([5]; EC50 Chymotrypsin-like, Table 6, values in nM): 13 nM; cytotoxicity against U266, in words (U266 [6]; from EC50 values): cytotoxic
